In the NIST ThermoML archive (doi:10.1007/s10765-007-0346-0):
± gives the expanded uncertainty stated by the source.

Key:
[1] = xn = mol fraction of the nth substance listed; conditions: 101 kPa, Liquid, Capillary tube (Ostwald / Ubbelohde) method
[2] = 101.33 kPa, Liquid, Capillary tube (Ostwald / Ubbelohde) method

CCC(C)CC [3-methylpentane] + COC(C)(C)C
kinematic viscosity [m2/s], [1]
Conditions | 283.15 K | 298.15 K | 313.15 K
x2 = 0.048 | 4.915e-07 ± 4.2e-09 | 4.361e-07 ± 3.8e-09 | 3.87e-07 ± 3.5e-09
x2 = 0.0967 | 4.906e-07 ± 4.2e-09 | 4.357e-07 ± 3.8e-09 | 3.859e-07 ± 3.4e-09
x2 = 0.1961 | 4.893e-07 ± 4.1e-09 | 4.348e-07 ± 3.7e-09 | 3.843e-07 ± 3.4e-09
x2 = 0.2982 | 4.895e-07 ± 4e-09 | 4.347e-07 ± 3.6e-09 | 3.836e-07 ± 3.3e-09
x2 = 0.3995 | 4.906e-07 ± 3.9e-09 | 4.351e-07 ± 3.6e-09 | 3.834e-07 ± 3.2e-09
x2 = 0.4983 | 4.923e-07 ± 3.9e-09 | 4.361e-07 ± 3.5e-09 | 3.836e-07 ± 3.2e-09
x2 = 0.5992 | 4.954e-07 ± 3.8e-09 | 4.379e-07 ± 3.5e-09 | 3.85e-07 ± 3.1e-09
x2 = 0.6984 | 4.995e-07 ± 3.8e-09 | 4.406e-07 ± 3.4e-09 | 3.863e-07 ± 3.1e-09
x2 = 0.7978 | 5.048e-07 ± 3.8e-09 | 4.435e-07 ± 3.4e-09 | 3.888e-07 ± 3.1e-09
x2 = 0.8996 | 5.113e-07 ± 3.8e-09 | 4.478e-07 ± 3.4e-09 | 3.918e-07 ± 3.1e-09
x2 = 0.9491 | 5.145e-07 ± 3.8e-09 | 4.502e-07 ± 3.4e-09 | 3.937e-07 ± 3.1e-09

CC(C)OC(C)C [diisopropyl ether]
[2]
Conditions | kinematic viscosity [m2/s]
283.15 K | 4.959e-07 ± 4.3e-09
298.15 K | 4.392e-07 ± 3.8e-09
313.15 K | 3.861e-07 ± 3.5e-09

CC(C)OC(C)C [diisopropyl ether] + CCC(C)CC
[1], x1 = 1
Conditions | kinematic viscosity [m2/s]
283.15 K | 4.959e-07 ± 4.3e-09
298.15 K | 4.392e-07 ± 3.9e-09
313.15 K | 3.861e-07 ± 3.5e-09

CC(C)OC(C)C [diisopropyl ether] + CCCCCC
kinematic viscosity [m2/s], [1]
Conditions | 283.15 K | 298.15 K | 313.15 K
x1 = 0.0523 | 5.094e-07 ± 4.4e-09 | 4.477e-07 ± 4e-09 | 4.011e-07 ± 3.6e-09
x1 = 0.0915 | 5.076e-07 ± 4.4e-09 | 4.467e-07 ± 4e-09 | 3.994e-07 ± 3.6e-09
x1 = 0.189 | 5.031e-07 ± 4.4e-09 | 4.446e-07 ± 3.9e-09 | 3.961e-07 ± 3.6e-09
x1 = 0.3016 | 4.99e-07 ± 4.3e-09 | 4.426e-07 ± 3.9e-09 | 3.929e-07 ± 3.6e-09
x1 = 0.398 | 4.963e-07 ± 4.3e-09 | 4.409e-07 ± 3.9e-09 | 3.907e-07 ± 3.6e-09
x1 = 0.4998 | 4.944e-07 ± 4.3e-09 | 4.397e-07 ± 3.9e-09 | 3.889e-07 ± 3.5e-09
x1 = 0.6007 | 4.931e-07 ± 4.3e-09 | 4.383e-07 ± 3.9e-09 | 3.874e-07 ± 3.5e-09
x1 = 0.6975 | 4.932e-07 ± 4.3e-09 | 4.381e-07 ± 3.9e-09 | 3.866e-07 ± 3.5e-09
x1 = 0.7976 | 4.934e-07 ± 4.3e-09 | 4.381e-07 ± 3.9e-09 | 3.859e-07 ± 3.5e-09
x1 = 0.8959 | 4.945e-07 ± 4.3e-09 | 4.386e-07 ± 3.9e-09 | 3.856e-07 ± 3.5e-09
x1 = 0.9432 | 4.953e-07 ± 4.3e-09 | 4.385e-07 ± 3.9e-09 | 3.86e-07 ± 3.5e-09

CC(C)OC(C)C [diisopropyl ether] + CCCCCCC
kinematic viscosity [m2/s], [1]
Conditions | 283.15 K | 298.15 K | 313.15 K
x1 = 0.0508 | 6.578e-07 ± 5.6e-09 | 5.658e-07 ± 4.9e-09 | 4.91e-07 ± 4.3e-09
x1 = 0.1002 | 6.473e-07 ± 5.5e-09 | 5.567e-07 ± 4.8e-09 | 4.831e-07 ± 4.3e-09
x1 = 0.1986 | 6.265e-07 ± 5.3e-09 | 5.387e-07 ± 4.7e-09 | 4.719e-07 ± 4.2e-09
x1 = 0.2973 | 6.068e-07 ± 5.2e-09 | 5.218e-07 ± 4.5e-09 | 4.61e-07 ± 4.1e-09
x1 = 0.3992 | 5.88e-07 ± 5e-09 | 5.055e-07 ± 4.4e-09 | 4.498e-07 ± 4e-09
x1 = 0.4991 | 5.693e-07 ± 4.9e-09 | 4.9e-07 ± 4.3e-09 | 4.385e-07 ± 3.9e-09
x1 = 0.5979 | 5.533e-07 ± 4.8e-09 | 4.779e-07 ± 4.2e-09 | 4.273e-07 ± 3.8e-09
x1 = 0.7009 | 5.372e-07 ± 4.6e-09 | 4.679e-07 ± 4.1e-09 | 4.166e-07 ± 3.7e-09
x1 = 0.8008 | 5.215e-07 ± 4.5e-09 | 4.588e-07 ± 4.1e-09 | 4.058e-07 ± 3.7e-09
x1 = 0.8954 | 5.091e-07 ± 4.4e-09 | 4.496e-07 ± 4e-09 | 3.96e-07 ± 3.6e-09
x1 = 0.95 | 5.016e-07 ± 4.4e-09 | 4.443e-07 ± 3.9e-09 | 3.909e-07 ± 3.6e-09

CCCCCCC [heptane]
[2]
Conditions | kinematic viscosity [m2/s]
283.15 K | 6.697e-07 ± 5.5e-09
298.15 K | 5.754e-07 ± 4.8e-09
313.15 K | 4.986e-07 ± 4.3e-09

CCCCCCC [heptane] + CC(C)OC(C)C
[1], x2 = 0
Conditions | kinematic viscosity [m2/s]
283.15 K | 6.697e-07 ± 5.7e-09
298.15 K | 5.754e-07 ± 5e-09
313.15 K | 4.986e-07 ± 4.4e-09

CCCCCC [hexane]
[2]
Conditions | kinematic viscosity [m2/s]
283.15 K | 5.125e-07 ± 4.4e-09
298.15 K | 4.493e-07 ± 3.9e-09
313.15 K | 4.039e-07 ± 3.6e-09

CCCCCC [hexane] + CC(C)OC(C)C
[1], x2 = 0
Conditions | kinematic viscosity [m2/s]
283.15 K | 5.125e-07 ± 4.5e-09
298.15 K | 4.493e-07 ± 4e-09
313.15 K | 4.039e-07 ± 3.6e-09
